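Tested at 5 concentrations; 48 h exposure; 96-well plates; endpoints linearly interpolated, else capped at highest concentration. TGI marks complete inhibition of growth.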
Assays:
Test in all cases: DTP human tumour cell line panel, 48 h
BT-549 breast = tested on: BT-549 breast
SW-620 colon = tested on: SW-620 colon
SK-MEL-5 melanoma = tested on: SK-MEL-5 melanoma
K-562 leukemia = tested on: K-562 leukemia
HCT-116 colon = tested on: HCT-116 colon
CCRF-CEM leukemia = tested on: CCRF-CEM leukemia
HOP-92 NSCLC = tested on: HOP-92 NSCLC
HCC-2998 colon = tested on: HCC-2998 colon
SK-OV-3 ovarian = tested on: SK-OV-3 ovarian
MDA-N = tested on: MDA-N
RPMI-8226 leukemia = tested on: RPMI-8226 leukemia
MOLT-4 leukemia = tested on: MOLT-4 leukemia
T-47D breast = tested on: T-47D breast
NCI/ADR-RES ovarian = tested on: NCI/ADR-RES ovarian
M14 melanoma = tested on: M14 melanoma
OVCAR-4 ovarian = tested on: OVCAR-4 ovarian
SN12C renal = tested on: SN12C renal
MDA-MB-435 = tested on: MDA-MB-435
A498 renal = tested on: A498 renal
786-0 renal = tested on: 786-0 renal
HT29 colon = tested on: HT29 colon
OVCAR-5 ovarian = tested on: OVCAR-5 ovarian
U251 CNS = tested on: U251 CNS
SK-MEL-2 melanoma = tested on: SK-MEL-2 melanoma
SF-539 CNS = tested on: SF-539 CNS
NCI-H522 lung = tested on: NCI-H522 lung
SF-268 CNS = tested on: SF-268 CNS
IGROV1 ovarian = tested on: IGROV1 ovarian
ACHN renal = tested on: ACHN renal
HCT-15 colon = tested on: HCT-15 colon
SF-295 CNS = tested on: SF-295 CNS
SR leukemia = tested on: SR leukemia
NCI-H460 lung = tested on: NCI-H460 lung
PC-3 prostate = tested on: PC-3 prostate
SK-MEL-28 melanoma = tested on: SK-MEL-28 melanoma
OVCAR-8 ovarian = tested on: OVCAR-8 ovarian
SNB-19 CNS = tested on: SNB-19 CNS
LOX IMVI melanoma = tested on: LOX IMVI melanoma
NCI-H226 lung = tested on: NCI-H226 lung
MCF7 breast = tested on: MCF7 breast
COLO 205 colon = tested on: COLO 205 colon
UO-31 renal = tested on: UO-31 renal
TK-10 renal = tested on: TK-10 renal
MDA-MB-231 breast = tested on: MDA-MB-231 breast
RXF 393 renal = tested on: RXF 393 renal
KM12 colon = tested on: KM12 colon
EKVX NSCLC = tested on: EKVX NSCLC
DU-145 prostate = tested on: DU-145 prostate
OVCAR-3 ovarian = tested on: OVCAR-3 ovarian
MALME-3M melanoma = tested on: MALME-3M melanoma
NCI-H23 lung = tested on: NCI-H23 lung
HOP-62 NSCLC = tested on: HOP-62 NSCLC
UACC-62 melanoma = tested on: UACC-62 melanoma
A549 NSCLC = tested on: A549 NSCLC
HS 578T breast = tested on: HS 578T breast
SNB-75 CNS = tested on: SNB-75 CNS
HL-60(TB) leukemia = tested on: HL-60(TB) leukemia
UACC-257 melanoma = tested on: UACC-257 melanoma
CAKI-1 renal = tested on: CAKI-1 renal

Compound: O=C(N=S(NC(=O)c1ccccc1)C(Cl)(Cl)Cl)c1ccccc1 (centres undefined)
- TGI (BT-549 breast): 32.4 µM
- TGI (SW-620 colon): 15.9 µM
- TGI (SK-MEL-5 melanoma): 20.5 µM
- TGI (K-562 leukemia): > 84 µM
- TGI (HCT-116 colon): 28.8 µM
- TGI (CCRF-CEM leukemia): 12.1 µM
- TGI (HOP-92 NSCLC): > 100 µM
- TGI (HCC-2998 colon): > 57.3 µM
- TGI (SK-OV-3 ovarian): > 31.6 µM
- TGI (MDA-N): > 100 µM
- TGI (RPMI-8226 leukemia): > 100 µM
- TGI (MOLT-4 leukemia): 30.7 µM
- TGI (T-47D breast): 67.5 µM
- TGI (NCI/ADR-RES ovarian): > 51.9 µM
- TGI (M14 melanoma): 30.7 µM
- TGI (OVCAR-4 ovarian): 38 µM
- TGI (SN12C renal): 56.2 µM
- TGI (MDA-MB-435): 47.4 µM
- TGI (A498 renal): 76.2 µM
- TGI (786-0 renal): 54.9 µM
- TGI (HT29 colon): 36.3 µM
- TGI (OVCAR-5 ovarian): 50.7 µM
- TGI (U251 CNS): > 90.7 µM
- TGI (SK-MEL-2 melanoma): 70.1 µM
- TGI (SF-539 CNS): 48.1 µM
- TGI (NCI-H522 lung): 51.1 µM
- TGI (SF-268 CNS): > 100 µM
- TGI (IGROV1 ovarian): > 49 µM
- TGI (ACHN renal): 47.5 µM
- TGI (HCT-15 colon): 27 µM
- TGI (SF-295 CNS): > 59 µM
- TGI (SR leukemia): > 73.4 µM
- TGI (NCI-H460 lung): > 70.9 µM
- TGI (PC-3 prostate): > 100 µM
- TGI (SK-MEL-28 melanoma): 66.7 µM
- TGI (OVCAR-8 ovarian): 38.8 µM
- TGI (SNB-19 CNS): > 100 µM
- TGI (LOX IMVI melanoma): 39.3 µM
- TGI (NCI-H226 lung): > 58.6 µM
- TGI (MCF7 breast): 76.5 µM
- TGI (COLO 205 colon): 29.4 µM
- TGI (UO-31 renal): 29.9 µM
- TGI (TK-10 renal): > 100 µM
- TGI (MDA-MB-231 breast): > 100 µM
- TGI (RXF 393 renal): 18 µM
- TGI (KM12 colon): > 100 µM
- TGI (EKVX NSCLC): 39.2 µM
- TGI (DU-145 prostate): > 100 µM
- TGI (OVCAR-3 ovarian): > 77.7 µM
- TGI (MALME-3M melanoma): 37.9 µM
- TGI (NCI-H23 lung): 30 µM
- TGI (HOP-62 NSCLC): > 31.6 µM
- TGI (UACC-62 melanoma): > 100 µM
- TGI (A549 NSCLC): > 100 µM
- TGI (HS 578T breast): 99.5 µM
- TGI (SNB-75 CNS): > 100 µM
- TGI (HL-60(TB) leukemia): 13.7 µM
- TGI (UACC-257 melanoma): 83.8 µM
- TGI (CAKI-1 renal): 54.9 µM

Compound: O=C(N/N=C/c1ccc2c(c1)CCC2)c1ccccc1O
- TGI (BT-549 breast): 41.7 µM
- TGI (SW-620 colon): > 100 µM
- TGI (SK-MEL-5 melanoma): > 100 µM
- TGI (K-562 leukemia): > 100 µM
- TGI (HCT-116 colon): 43.7 µM
- TGI (CCRF-CEM leukemia): > 100 µM
- TGI (HOP-92 NSCLC): 65.3 µM
- TGI (HCC-2998 colon): 28.3 µM
- TGI (SK-OV-3 ovarian): 30 µM
- TGI (MDA-N): 64.8 µM
- TGI (RPMI-8226 leukemia): > 100 µM
- TGI (MOLT-4 leukemia): > 100 µM
- TGI (T-47D breast): > 100 µM
- TGI (NCI/ADR-RES ovarian): 73.8 µM
- TGI (M14 melanoma): > 100 µM
- TGI (OVCAR-4 ovarian): 60.2 µM
- TGI (SN12C renal): 62.7 µM
- TGI (MDA-MB-435): 51.9 µM
- TGI (A498 renal): 36.8 µM
- TGI (786-0 renal): 45 µM
- TGI (HT29 colon): > 100 µM
- TGI (OVCAR-5 ovarian): > 100 µM
- TGI (U251 CNS): 33.7 µM
- TGI (SK-MEL-2 melanoma): 60 µM
- TGI (SF-539 CNS): 65.8 µM
- TGI (NCI-H522 lung): 61.1 µM
- TGI (SF-268 CNS): 74.7 µM
- TGI (IGROV1 ovarian): 55.9 µM
- TGI (ACHN renal): 34.8 µM
- TGI (HCT-15 colon): 69.6 µM
- TGI (SF-295 CNS): 36.6 µM
- TGI (SR leukemia): > 100 µM
- TGI (NCI-H460 lung): 63.2 µM
- TGI (PC-3 prostate): 53.4 µM
- TGI (SK-MEL-28 melanoma): 68.2 µM
- TGI (OVCAR-8 ovarian): 71.9 µM
- TGI (SNB-19 CNS): 44.7 µM
- TGI (LOX IMVI melanoma): > 100 µM
- TGI (NCI-H226 lung): 77.7 µM
- TGI (MCF7 breast): 34 µM
- TGI (COLO 205 colon): > 100 µM
- TGI (UO-31 renal): 94.6 µM
- TGI (TK-10 renal): 51.1 µM
- TGI (MDA-MB-231 breast): 58.6 µM
- TGI (RXF 393 renal): 62 µM
- TGI (KM12 colon): 50.7 µM
- TGI (EKVX NSCLC): 92.2 µM
- TGI (DU-145 prostate): > 100 µM
- TGI (OVCAR-3 ovarian): 41.5 µM
- TGI (MALME-3M melanoma): 61.5 µM
- TGI (NCI-H23 lung): 82.2 µM
- TGI (HOP-62 NSCLC): 38 µM
- TGI (UACC-62 melanoma): 70.5 µM
- TGI (A549 NSCLC): 57.5 µM
- TGI (HS 578T breast): 71 µM
- TGI (SNB-75 CNS): 38 µM
- TGI (HL-60(TB) leukemia): > 100 µM
- TGI (UACC-257 melanoma): 95.1 µM
- TGI (CAKI-1 renal): 74.5 µM

Compound: Fc1ccc2nc3n(c2c1)C(c1c(F)cccc1F)SC3 (centres undefined)
- TGI (BT-549 breast): > 100 µM
- TGI (SW-620 colon): > 100 µM
- TGI (SK-MEL-5 melanoma): > 100 µM
- TGI (HCT-116 colon): > 100 µM
- TGI (HOP-92 NSCLC): > 100 µM
- TGI (HCC-2998 colon): > 100 µM
- TGI (SK-OV-3 ovarian): > 100 µM
- TGI (MDA-N): 85.3 µM
- TGI (RPMI-8226 leukemia): > 100 µM
- TGI (MOLT-4 leukemia): > 100 µM
- TGI (T-47D breast): > 100 µM
- TGI (NCI/ADR-RES ovarian): > 100 µM
- TGI (M14 melanoma): > 100 µM
- TGI (OVCAR-4 ovarian): > 100 µM
- TGI (SN12C renal): > 100 µM
- TGI (MDA-MB-435): > 100 µM
- TGI (A498 renal): > 100 µM
- TGI (786-0 renal): > 100 µM
- TGI (HT29 colon): > 100 µM
- TGI (OVCAR-5 ovarian): > 100 µM
- TGI (U251 CNS): > 100 µM
- TGI (SK-MEL-2 melanoma): > 100 µM
- TGI (SF-539 CNS): > 100 µM
- TGI (NCI-H522 lung): > 100 µM
- TGI (SF-268 CNS): > 100 µM
- TGI (IGROV1 ovarian): > 100 µM
- TGI (ACHN renal): > 100 µM
- TGI (HCT-15 colon): > 100 µM
- TGI (SF-295 CNS): > 100 µM
- TGI (SR leukemia): 76.2 µM
- TGI (NCI-H460 lung): > 100 µM
- TGI (PC-3 prostate): > 100 µM
- TGI (SK-MEL-28 melanoma): > 100 µM
- TGI (OVCAR-8 ovarian): > 100 µM
- TGI (SNB-19 CNS): > 100 µM
- TGI (LOX IMVI melanoma): > 100 µM
- TGI (NCI-H226 lung): > 100 µM
- TGI (MCF7 breast): > 100 µM
- TGI (COLO 205 colon): > 100 µM
- TGI (UO-31 renal): > 100 µM
- TGI (TK-10 renal): > 100 µM
- TGI (MDA-MB-231 breast): > 100 µM
- TGI (RXF 393 renal): > 100 µM
- TGI (KM12 colon): > 100 µM
- TGI (DU-145 prostate): > 100 µM
- TGI (OVCAR-3 ovarian): > 100 µM
- TGI (MALME-3M melanoma): > 100 µM
- TGI (NCI-H23 lung): > 100 µM
- TGI (HOP-62 NSCLC): > 100 µM
- TGI (UACC-62 melanoma): > 100 µM
- TGI (A549 NSCLC): > 100 µM
- TGI (HS 578T breast): > 100 µM
- TGI (SNB-75 CNS): > 100 µM
- TGI (HL-60(TB) leukemia): 53 µM
- TGI (UACC-257 melanoma): > 100 µM
- TGI (CAKI-1 renal): > 100 µM
